From article PMC7955127, “Preclinical small molecule WEHI-7326 overcomes drug resistance and elicits response in patient-derived xenograft models of human treatment-refractory tumors” (Cell Death & Disease, 2021)

What was measured:
[1] = test system: MDA-MB-231 LNA DRE (docetaxel resistant breast cancer) xenograft; assay: Orthotopic MDA-MB-231 LNA-DRE xenograft; type: in vivo, Balb/c nude mice; settings: docetaxel 10 mg/kg weekly i.v., WEHI-7326 30 mg/kg biweekly i.v.
Protocol: LoVo (4 × 10^6), PC3 (3 × 10^6) or MDA-MB-231 LNA DRE (10^6) cells were collected by trypsination and injected with 50 μl 1:1 PBS:Matrigel (v/v) subcutaneously on the right flank of 18 female (LoVo), 40 male (PC3) or into 4th mammary fat pad of 40 female (MDA231) Balb/c nude mice. Tumor growth was monitored and average tumor size at commencement of dosing was 100 mm^3. Mice were randomized into 3 arms of each 5 (LoVo), 10 (PC3) or 12 (MDA23) mice respectively and treatment with vehicle (saline), WEHI-7326 (biweekly) or docetaxel (weekly) was administered via tail vein injection. Tumor volumes were measured at least twice weekly with calipers and the experiments were terminated when tumors in the control group started exceeding 1500 mm^3. For LoVo, both vehicle and 25 mg/kg WEHI-7326 groups were harvested 24 h, but 20 mg/kg WEHI-7326 group harvested 1 h post final dose. For PC3, docetaxel group was not harvested in an attempt to grow out resistant tumors.

[2] = Fourteen day maximum tolerated dose study, twice weekly i.v. (non-GLP); type: in vivo
Protocol: Fourteen day maximum tolerated dose (MTD) study of WEHI-7326 dihydrochloride following twice weekly intravenous administration in female Sprague-Dawley rats. All treatments were administered i.v. (tail vein) in a dosing volume of 10 mL/kg. Treatment was administered in a staggered manner, beginning with WEHI-7326 at 7.5 mg/kg and then increasing the dose on subsequent days. For all data calculations and presentation, the first day of treatment for each group is designated as Day 1. One animal died immediately following a single dose of WEHI-7326 at 60 mg/kg (Group 2). The remaining scheduled treatments at this dose were cancelled and dosing recommenced at a reduced dose of 10 mg/kg to the remaining 3 animals in this group. Intravenous (tail vein) treatment of female Sprague-Dawley rats with WEHI-7326 was tolerated without serious adverse events or body weight loss exceeding the ethical limit at doses of 7.5 and 10 mg/kg in this study.
Sixteen female Sprague-Dawley rats were microchipped and randomised into four groups of four based on body weight two days prior to the first day’s treatment. The test article was to be tested at four dose concentrations of 7.5 mg/kg, 15 mg/kg, 30 mg/kg and 60 mg/kg, administered i.v. via tail vein injection at a dose rate of 10 mL/kg. […] Animals were to be dosed on their respective Study Day 1, then twice weekly over two weeks. Body weights were measured once prior to dose administration, then daily for the duration of the study and at termination. Clinical observations were performed on a daily basis. Due to the immediate death of one animal dosed with WEHI-7326 at 60 mg/kg and subsequent development of signs of toxicity in animals that had received three doses at 15 mg/kg and two doses at 30 mg/kg, the dose level for the remaining three animals in Group 4 was reduced to 10 mg/kg (four doses). As treatment with WEHI-7326 was tolerated without serious adverse events or body weight loss exceeding the ethical limit at doses of 7.5 and 10 mg/kg in this study, the maximum tolerated dose was determined to be 10 mg/kg.

134183 HGSOC PDX = assay: HGSOC PDX model 134183; type: in vivo, NSG mice; settings: 134183 platinum-sensitive PDX; 20 mg/kg i.v. biweekly, 6 weeks
Protocol: (§1) Two to three mm ovarian tumor fragments were subcutaneously engrafted in the left flank of NSG mice and monitored by physical palpation for tumor growth and engraftment. Engrafted tumors were measured twice a week using digital Vernier calipers and maximum tumor diameter + perpendicular tumor length were digitally recorded into the Study Director software (v 3.0/4.0 StudyLog). Tumor volume was calculated automatically (tumor volume (mm^3) = 0.5236 x [larger diameter (mm) x smaller diameter (mm)^2]). Mice were randomized to treatment once their tumor volume reach 180–300 mm^3 and tumor measurements were performed twice a week up to 120 days or when the tumor volume reaches 700 mm^3.
(§2) Time to progressive disease (PD): Defined as the time (in days) from beginning of treatment to an increase in average tumor volume of >20% from the nadir (taken as the smallest average tumor volume recorded since treatment started or 200 mm^3 if nadir was <200 mm^3 as lesions smaller than this are difficult to measure with accuracy). Median time to harvest (TTH): Defined as the time (in days) from the beginning of treatment to day of harvest at 700 mm^3 and the median TTH was calculated and plotted using Kaplan-Meier curves. Based on ref. [27]. […]

134169 HGSOC PDX = assay: HGSOC post-chemo PDX model 134169; type: in vivo, NSG mice; settings: 134169 post-taxane, cisplatin-refractory PDX; 20 mg/kg i.v. twice a week, 6 weeks
Protocol: as §1, §2

Plasma protein binding = type: in vitro ADME; settings: mouse plasma
From the text: a Measured physicochemical and solubility data for WEHI-7326. […] Microsomal-predicted EH values are included.

[3] = female rats, 7.5 mg/kg twice weekly i.v.
[4] = female rats, 10 mg/kg twice weekly i.v.
[5] = female rats, 15 mg/kg twice weekly i.v.
[6] = female rats, 30 mg/kg twice weekly i.v.

For `COc1ccc(CNc2nc(NCc3ccc(CN)cc3)nc(NN3CC(=O)NC3=O)n2)cc1` [WEHI-7326], the “Tumor growth inhibition (TGI)” value [1] was 105%, the Lethality ([2]; female Sprague-Dawley rats, 60 mg/kg i.v.) was “acutely lethal” and the “Mild red staining right fore limb (number of animals)” value [2, 3] was 1/4. For the same compound, the “No remarkable observation (number of animals)” value [2, 3] was 3/4, the “Mild piloerection (number of animals)” value [2, 4] was 3/3 and the “Mild red staining of snout, fore limbs and/or head (number of animals)” value [2, 4] was 3/3. The “Urine-stained fur (number of animals)” value [2, 4] was 1/3, the “Discharge both eyes (number of animals)” value [2, 5] was 1/4 and the “Early termination (StudyDay 9) due to adverse clinical signs and excess body weight loss (number of animals)” value [2, 5] was 3/4. The “Mild red staining of eyes and or head (number of animals)” value [2, 5] was 2/4, the “Mild squinting both eyes (number of animals)” value [2, 5] was 1/4 and the “Mild/moderate hunched posture (number of animals)” value [2, 5] was 4/4. For the same compound, the “Mild/moderate piloerection (number of animals)” value [2, 5] was 4/4, the “Urine-stained fur (number of animals)” value [2, 5] was 1/4 and the “Early termination (StudyDay 5) due to adverse clinical signs and excess body weight loss (number of animals)” value [2, 6] was 4/4. The “Mild excess salivation (number of animals)” value [2, 6] was 2/4, the “Mild piloerection (number of animals)” value [2, 6] was 4/4 and the “Mild red staining of limbs, eyes, snout and or head (number of animals)” value [2, 6] was 4/4. For the same compound, the “Mild squinting both eyes (number of animals)” value [2, 6] was 4/4, the “Mild/moderate hunched posture (number of animals)” value [2, 6] was 4/4 and the “Mild/moderate labored breathing (number of animals)” value [2, 6] was 4/4. The “Mild/moderate lethargy (number of animals)” value [2, 6] was 4/4, the “Urine-stained fur (number of animals)” value [2, 6] was 4/4 and the “Found dead immediately after administration (number of animals)” value ([2]; female rats, 60 mg/kg i.v., single dose) was 1/1. For the same compound, the MTD at 14 days ([2]; rat, in vivo, iv, female Sprague-Dawley rats, twice weekly i.v., 14 day) was 10 mg/kg, the “Median time to harvest (TTH)” value (134183 HGSOC PDX) was “lack of improvement” and the “Time to progressive disease (PD)” value (134183 HGSOC PDX) was 53 days. For the same compound, the Tumor response (134169 HGSOC PDX) was “ineffective” and the Protein binding (Plasma protein binding) was 61 % bound.
